Reference: paper PMC5444710, “Enhancement of radiosensitivity by the novel anticancer quinolone derivative vosaroxin in preclinical glioblastoma models” (Oncotarget, 2017)

Assays:
[1] = tested on: A172 glioma cell line; experiment: Inhibition of proliferation (cell viability); format: cell-based; settings: Homo sapiens, A 172
Procedure: (§1) Cells were seeded at a density of 2 × 10^4 cells/mL in 24-well plates. Cells were […] to attach and grow in 5% fetal bovine serum in DMEM for 24 hours. Cells were treated with different doses of radiation or temozolomide and then maintained in the appropriate culture conditions. At the conclusion of the treatment period, cells were trypsinized and resuspended in 1.0 mL of saline; viable cells were counted using the NucleoCounter^TM NC-100 (Chemotec, […], Denmark). All experiments were conducted in triplicate. IC50 values were calculated using GraFit (Erithacus Software Limited, Staines, UK).

[2] = tested on: D54 glioma cell line; experiment: Inhibition of proliferation (cell viability); format: cell-based; settings: Homo sapiens
Procedure: as §1

[3] = tested on: LN18 glioma cell line; experiment: Inhibition of proliferation (cell viability); format: cell-based; settings: Homo sapiens, LN-18
Procedure: as §1

[4] = tested on: LN229 glioma cell line; experiment: Inhibition of proliferation (cell viability); format: cell-based; settings: Homo sapiens, LN-229
Procedure: as §1

[5] = tested on: SF268 glioma cell line; experiment: Inhibition of proliferation (cell viability); format: cell-based; settings: Homo sapiens, SF-268
Procedure: as §1

[6] = tested on: SNB19 glioma cell line; experiment: Inhibition of proliferation (cell viability); format: cell-based; settings: Homo sapiens, SNB-19
Procedure: as §1

[7] = tested on: SW1783 glioma cell line; experiment: Inhibition of proliferation (cell viability); format: cell-based; settings: Homo sapiens
Procedure: as §1

[8] = tested on: T98G glioma cell line; experiment: Inhibition of proliferation (cell viability); format: cell-based; settings: Homo sapiens
Procedure: as §1

[9] = tested on: U118 glioma cell line; experiment: Inhibition of proliferation (cell viability); format: cell-based; settings: Homo sapiens
Procedure: as §1

[10] = tested on: U138 glioma cell line; experiment: Inhibition of proliferation (cell viability); format: cell-based; settings: Homo sapiens
Procedure: as §1

[11] = tested on: U251 glioma cell line; experiment: Inhibition of proliferation (cell viability); format: cell-based; settings: Homo sapiens, U-251
Procedure: as §1

[12] = tested on: U373 glioma cell line; experiment: Inhibition of proliferation (cell viability); format: cell-based; settings: Homo sapiens, U373 MG
Procedure: as §1

[13] = tested on: U87MG glioma cell line; experiment: Inhibition of proliferation (cell viability); format: cell-based; settings: Homo sapiens, U-87 MG
Procedure: as §1

[14] = tested on: BT12M patient-derived glioblastoma stem cell line; experiment: Inhibition of proliferation (cell viability); format: cell-based; settings: Homo sapiens
Procedure: (§2) Thirteen human glioma cell lines (U251, U373, SNB19, U118, U138, U87MG, A172, LN229, LN19, SW1783, T98G, SF-268, and D54) were cultured at 37°C in 5% CO2 and were maintained in Dulbecco’s modified Eagle medium (DMEM) containing 10% (v/v) fetal bovine serum, 4 mM glutamine, 100 IU/mL penicillin, 100 μg/mL streptomycin, and 1% nonessential amino acid (Invitrogen Life Technologies, Inc., Rockville, MD, USA). To minimize the risk of working with misidentified and/or contaminated cell lines, the cells used in studies reported here were stocked at very low passages after initial receipt from the vendor to reduce the possibility of contaminated cell line stocks and used at < 20 subcultures. Periodically, DNA profiling by GenePrint® 10 System (Promega Corporation, Madison, WI, USA) was carried out to authenticate cell cultures. Luciferase-transfected U251 cells were kindly provided by Jari E. Heikkila, department of Biochemistry and Pharmacy, Abo Akademi University, Turku, Finland. […] These non-commercially available, patient-derived cells were analyzed using short tandem repeat profiles. The expression of MGMT, p53, and PTEN was detected in western blots with antibodies from Santa Cruz against MGMT (sc166528), wt p53 (sc-100), total p53 (sc-126), and PTEN (sc-7974).
(§3) Cells were seeded at a density of 2 × 10^4 cells/mL in 24-well plates. […] At the conclusion of the treatment period, cells were trypsinized and resuspended in 1.0 mL of saline; viable cells were counted using the NucleoCounter™ NC-100 (Chemotec, Cydevang, Denmark). […] IC50 values were calculated using GraFit (Erithacus Software Limited, Staines, UK).

[15] = tested on: CSCs-5 patient-derived glioblastoma stem cell line; experiment: Inhibition of proliferation (cell viability); format: cell-based; settings: Homo sapiens
Procedure: as §2, §3

[16] = tested on: CSCs-7 patient-derived glioblastoma stem cell line; experiment: Inhibition of proliferation (cell viability); format: cell-based; settings: Homo sapiens
Procedure: as §2, §3

[17] = tested on: 13 human glioma cell lines and three patient-derived glioblastoma stem cell lines; experiment: Cell viability / growth inhibition, whole panel; format: cell-based
Procedure: as §1

[18] = tested on: GBM cell lines; experiment: Clonogenic survival assays (abstract statement); format: cell-based; settings: Homo sapiens
Procedure: For clonogenic survival assays, exponentially growing cells (70% confluence) were cultured in regular media and treated with vosaroxin, at the appropriate concentrations, or vehicle (final dimethyl sulfoxide concentration of 0.1%) for 48 hours. Tumor cells were then irradiated at room temperature with increasing doses of radiation (0–6 Gy) using an x-ray linear accelerator (dose rate of 200 cGy/min). Nonirradiated controls were handled identically to the irradiated cells with the exception of the radiation exposure. […] Colonies containing more than 50 cells were counted. The plating efficiency was calculated as the number of colonies observed divided by the number of cells plated. The surviving fraction was calculated as the number of colonies formed in the treated dishes compared with the number formed in the control. The survival curves were analyzed using SPSS statistical software (Chicago, IL, USA) by means of a fit of the data by a weighted, stratified, linear regression, according to the linear-quadratic formula: S(D)/S(O) = exp-(αD + βD2). The cell survival enhancement ratio was calculated as the ratio of the mean inactivation dose under control conditions divided by the mean inactivation dose after treatment as previously described.

[19] = tested on: P-glycoprotein drug pumps; design: method as in PMID 23688047; settings: cited from earlier work

**Q.** Which results are given for CN[C@H]1CN(c2ccc3c(=O)c(C(=O)O)cn(-c4nccs4)c3n2)C[C@@H]1OC [vosaroxin]?
**A.** IC50 [1]: 125 ± 89.4 nM; IC50 [2]: 190 ± 25.4 nM; IC50 [3]: 90 ± 12.5 nM; IC50 [4]: 12.8 ± 2.3 nM; IC50 [5]: 50.3 ± 12 nM; IC50 [6]: 35.5 ± 7 nM; IC50 [7]: 260 ± 9.8 nM; IC20 [8]: 45 nM; IC50 [8]: 64.5 ± 11 nM; IC50 [9]: 88.5 ± 16.7 nM; IC50 [10]: 65.8 ± 14.6 nM; IC20 [11]: 15 nM; IC50 [11]: 18.6 ± 2.4 nM; IC50 [12]: 78.4 ± 9.7 nM; IC20 [13]: 65 nM; IC50 [13]: 141 ± 84.7 nM; IC50 [14]: 44.3 ± 5.5 nM; IC50 [15]: 85.4 ± 7.8 nM; IC50 [16]: 125 ± 15.4 nM; IC20 ([17]; Glioma cell, glioma cells used in clonogenic studies, read-out: IC20 values in growth inhibition assays, range): 10 to 100 nM; IC50 ([17]; read-out: IC50 values, range over all cell lines tested): 12.8 to 260 nM; IC50 [18]: 10 to 100 nM; substrate for P-glycoprotein drug pumps [19]: not a substrate
